Experimental data reported in patent US8486962B2, “Antifungal agents” (F2G Ltd., priority 2005, dated 2013).
In brackets after ≈: the same amount, converted by molar mass.

What was measured:
Type in all cases: cell-based
Aspergillus flavus = test: MIC, YAG medium, Aspergillus flavus; conditions: Aspergillus flavus; YAG medium; read-out: MIC A Flavus 01
Description: (§1) Measurement of Minimum Inhibitory Concentrations (MICs)
(§2) Between 1 and 5 mgs of compound were accurately weighed out into a sterile Eppendorf tube. The compound was dissolved in DMSO to give a solution containing 5 mg/ml. Tubes were stored at −20° C. until required.
(§3) On the day of testing thawed solutions were vortex mixed to ensure homogeneity. 30 μl of solution was removed and added to 570 μl of sterile water in a separate sterile Eppendorf. The thoroughly mixed solution was used to prepare a series of doubling dilutions in water, in a deep well plate. Eleven replicate plates were prepared using a Minitrak by aspirating 20 μl from each well into eleven clear polystyrene 96 well plates.
(§4) Spores of Aspergillus spp (Aspergillus fumigatus, Aspergillus terreus, Aspergillus niger and Aspergillus flavus) were harvested from cultures grown on Sabarauds agar for 5 days, and resuspended in PBS/Tween 80 to approx 1×10^7 cfu/ml Other filamentous fungi (Fusarium solani, Scedosporium spp., Trichophyton spp., Absidia corymbifera), were grown on Sabarauds agar for 2-10 days and spores/hyphae resuspended in PBS/Tween to give approx 1×10^7 cfU/ml. Candida species (Candida albicans, Candida glabrata, Candida krusei, Candida parapsilosis and Candida tropicalis) were grown on Sabarauds agar, cells were harvested from the agar using a sterile loop and resuspended in PBS/Tween 80 to approx 1×10^6 cfu/ml. Each organism suspension was diluted in RPMI medium, containing 2% glucose and 0.135M MOPS buffer (pH7.0) to 2×10^4 cfu/ml for Aspergillus spp and other filamentous fungi and 2×10^3 cfu/ml for yeast. 80 μl of an organism suspension was added to each well of the plate containing drug dilutions.
(§5) This produced MIC plates with a drug range 50-0.05 mg/L and organism inocula of 1-2×10^4 cfu/ml for Aspergillus spp and other filamentous fungi and 1-2×10^3 cfu/ml for yeasts. All plates were incubated for 24-48 hrs at 35° C. Growth was assessed by monitoring the optical density at 485 nm for each well. The MIC of a compound is the lowest drug concentration that inhibits growth of an organism by >80% compared with a drug free control. MICs are recorded as mg/L. Other growth media can be used for susceptibility testing, and the activity of the described compounds can also be assessed in a medium comprising, 1% glucose, 1% ammonium chloride and 0.5% yeast extract (YAG medium). To perform MIC tests in this medium, dilutions of compounds are prepared in microtitre plates as described above. Fungal strains to be tested are grown and harvested in an identical manner to that described above, each organism suspension is then diluted in YAG medium to 2×10^4 cfu/ml for Aspergillus spp and other filamentous fungi and 2×10^3 cfu/ml for yeast. 80 μl of an organism suspension was added to each well of the plate containing drug dilutions. This produced MIC plates with a drug range 50-0.05 mg/L and organism inocula of 1-2×10^4 cfu/ml for Aspergillus spp and other filamentous fungi and 1-2×10^3 cfu/ml for yeasts. All plates were incubated for 24 hrs at 35° C. Growth was assessed by monitoring the optical density at 485 nm for each well. The MIC of a compound is the lowest drug concentration that inhibits growth of an organism by >70% compared with a drug free control. MICs are recorded as mg/L. In cases where the MIC of an organism is […]0.05 mg/L the MIC is repeated using a concentration range of 0.5-0.0005 mg/L. MIC tests in YAG medium have more clear-cut endpoints and have slightly lower MICS than those performed in RPMI medium.
(§6) The following organisms were tested: Aspergillus fumigatus AF293 and Aspergillus fumigatus AF210, Aspergillus niger, Aspergillus terreus, Aspergillus favus, Candida albicans, Candida krusei, Candida tropicalis, Candida glabrata, Candida parapsilosis, Trichophyton rubrum, Trichophyton mentagrophytes, Scedosporium prolificans, Scedosporium apiospermum, Absidia corymbifera, Fusarium solani.

Aspergillus niger = test: MIC, YAG medium, Aspergillus niger; conditions: Aspergillus niger; YAG medium; read-out: MIC A Niger 1
Description: as §1, §2, §3, §4, §5, §6

[1] = tested on: Aspergillus fumigatus AF210; test: MIC, YAG medium, Aspergillus fumigatus AF210; conditions: Aspergillus fumigatus, AF210; YAG medium; read-out: MIC A Fum. 210
Description: as §1, §2, §3, §4, §5, §6

Aspergillus terreus = test: MIC, YAG medium, Aspergillus terreus; conditions: Aspergillus terreus; YAG medium; read-out: MIC A Terreus 4
Description: as §1, §2, §3, §4, §5, §6

[2] = tested on: Aspergillus fumigatus AF293; test: MIC, YAG medium, Aspergillus fumigatus AF293; conditions: Aspergillus fumigatus, AF293; YAG medium; read-out: MIC A Fum. 293
Description: as §1, §2, §3, §4, §5, §6

| Structure (SMILES) | MIC (Aspergillus flavus) [µg/mL] | MIC (Aspergillus niger) [µg/mL] | MIC [1] [µg/mL] | MIC (Aspergillus terreus) [µg/mL] | MIC [2] [µg/mL] |
| --- | --- | --- | --- | --- | --- |
| O=C(Nc1ccc(F)cc1)C(=O)c1c(-c2ccc(F)cc2)cc2ccccn12 [Example 209, N-(4-Fluoro-phenyl)-2-[2-(4-fluoro-phenyl)-indolizin-3-yl]-2-oxo-acetamide] | 0.1 (≈ 0.266 µM) | 0.05 (≈ 0.133 µM) | > 50 | 0.05 (≈ 0.133 µM) | > 50 |
| O=C(Nc1ccc(Cl)cc1)C(=O)c1c(-c2ccc(F)cc2)cc2ccccn12 [Example 210, N-(4-Chloro-phenyl)-2-[2-(4-fluoro-phenyl)-indolizin-3-yl]-2-oxo-acetamide] | 0.05 (≈ 0.127 µM) | 0.05 (≈ 0.127 µM) | > 50 | 0.05 (≈ 0.127 µM) | > 50 |
| O=C(Nc1ccccc1F)C(=O)c1c(-c2cccnc2)cc2ccccn12 [Example 211, N-(2-Fluoro-phenyl)-2-oxo-2-(2-pyridin-3-yl-indolizin-3-yl)-acetamide] | 0.4 (≈ 1.11 µM) | 1.6 (≈ 4.45 µM) | 6.25 (≈ 17.4 µM) | 0.2 (≈ 0.557 µM) | 6.25 (≈ 17.4 µM) |
| Cc1ccccc1NC(=O)C(=O)c1c(-c2cccnc2)cc2ccccn12 [Example 213, 2-Oxo-2-(2-pyridin-3-yl-indolizin-3-yl)-N-o-tolyl-acetamide] | 0.4 (≈ 1.13 µM) | 1.6 (≈ 4.5 µM) | 6.25 (≈ 17.6 µM) | 0.8 (≈ 2.25 µM) | 6.25 (≈ 17.6 µM) |
| O=C(Nc1ccc(Br)cc1)C(=O)c1c(-c2cccnc2)cc2ccccn12 [Example 214, N-(4-Bromo-phenyl)-2-oxo-2-(2-pyridin-3-yl-indolizin-3-yl)-acetamide] | 0.1 (≈ 0.238 µM) | 0.4 (≈ 0.952 µM) | 0.8 (≈ 1.9 µM) | 0.1 (≈ 0.238 µM) | 0.8 (≈ 1.9 µM) |
| Cc1cccc(NC(=O)C(=O)c2c(-c3cccnc3)cc3ccccn23)c1 [Example 215, 2-Oxo-2-(2-pyridin-3-yl-indolizin-3-yl)-N-m-tolyl-acetamide] | 0.05 (≈ 0.141 µM) | 0.4 (≈ 1.13 µM) | 0.4 (≈ 1.13 µM) | 0.05 (≈ 0.141 µM) | 0.8 (≈ 2.25 µM) |
| O=C(Nc1ccccc1Cl)C(=O)c1c(-c2cccnc2)cc2ccccn12 [Example 216, N-(2-Chloro-phenyl)-2-oxo-2-(2-pyridin-3-yl-indolizin-3-yl)-acetamide] | 0.2 (≈ 0.532 µM) | 0.4 (≈ 1.06 µM) | 6.25 (≈ 16.6 µM) | 0.2 (≈ 0.532 µM) | 6.25 (≈ 16.6 µM) |
| CC(=O)c1ccc(NC(=O)C(=O)c2c(-c3cccnc3)cc3ccccn23)cc1 [Example 217, N-(4-Acetyl-phenyl)-2-oxo-2-(2-pyridin-3-yl-indolizin-3-yl)-acetamide] | 0.8 (≈ 2.09 µM) | > 50 | > 50 | 3.1 (≈ 8.09 µM) | > 50 |
| O=C(C(=O)N1CCc2ccccc21)c1c(-c2ccccc2)cc2ccccn12 [Example 218, 1-(2,3-Dihydro-indol-1-yl)-2-(2-phenyl-indolizin-3-yl)-ethane-1,2-dione] | > 50 | 0.4 (≈ 1.09 µM) | > 50 | > 50 | > 50 |
| CS(=O)(=O)Nc1ccc(NC(=O)C(=O)c2c(-c3ccccc3)cc3ccccn23)cc1 [Example 219, N-(4-Methanesulfonylamino-phenyl)-2-oxo-2-(2-phenyl-indolizin-3-yl)-acetamide] | > 50 | 3.1 (≈ 7.15 µM) | 50 (≈ 115 µM) | 6.25 (≈ 14.4 µM) | 12.5 (≈ 28.8 µM) |
| COc1cc(NC(=O)C(=O)c2c(-c3ccccc3)cc3ccccn23)cc(OC)c1OC [Example 222, 2-Oxo-2-(2-phenyl-indolizin-3-yl)-N-(3,4,5-trimethoxy-phenyl)-acetamide] | 0.05 (≈ 0.116 µM) | 3.1 (≈ 7.2 µM) | 1.6 (≈ 3.72 µM) | 0.4 (≈ 0.929 µM) | 1.6 (≈ 3.72 µM) |
| O=C(Nc1ccc(Cl)cc1Cl)C(=O)c1c(-c2cccnc2)cc2ccccn12 [Example 224, N-(2,4-Dichloro-phenyl)-2-oxo-2-(2-pyridin-3-yl-indolizin-3-yl)-acetamide] | 0.05 (≈ 0.122 µM) | 0.2 (≈ 0.487 µM) | 6.25 (≈ 15.2 µM) | 0.1 (≈ 0.244 µM) | 6.25 (≈ 15.2 µM) |
| CC(C)(C#N)c1ccc(NC(=O)C(=O)c2c(-c3cccnc3)cc3ccccn23)cc1 [Example 225, N-[4-(Cyano-dimethyl-methyl)-phenyl]-2-oxo-2-(2-pyridin-3-yl-indolizin-3-yl)-acetamide] | 0.1 (≈ 0.245 µM) | 3.1 (≈ 7.59 µM) | 3.1 (≈ 7.59 µM) | 0.1 (≈ 0.245 µM) | 3.1 (≈ 7.59 µM) |
| COc1cc(NC(=O)C(=O)c2c(-c3cccnc3)cc3ccccn23)cc(OC)c1OC [Example 226, 2-Oxo-2-(2-pyridin-3-yl-indolizin-3-yl)-N-(3,4,5-trimethoxy-phenyl)-acetamide] | 1.6 (≈ 3.71 µM) | > 50 | > 50 | 3.1 (≈ 7.19 µM) | > 50 |
| O=C(Nc1cc(Cl)cc(Cl)c1)C(=O)c1c(-c2cccnc2)cc2ccccn12 [Example 227, N-(3,5-Dichloro-phenyl)-2-oxo-2-(2-pyridin-3-yl-indolizin-3-yl)-acetamide] | 0.05 (≈ 0.122 µM) | 1.6 (≈ 3.9 µM) | 0.8 (≈ 1.95 µM) | 0.05 (≈ 0.122 µM) | 1.6 (≈ 3.9 µM) |
| CN(C)c1ccc(NC(=O)C(=O)c2c(-c3cccnc3)cc3ccccn23)cc1 [Example 230, N-(4-Dimethylamino-phenyl)-2-oxo-2-(2-pyridin-3-yl-indolizin-3-yl)-acetamide] | 0.1 (≈ 0.26 µM) | 3.1 (≈ 8.06 µM) | > 50 | 0.2 (≈ 0.52 µM) | > 50 |
| CC(C)(C#N)c1cccc(NC(=O)C(=O)c2c(-c3cccnc3)cc3ccccn23)c1 [Example 231, N-[3-(Cyano-dimethyl-methyl)-phenyl]-2-oxo-2-(2-pyridin-3-yl-indolizin-3-yl)-acetamide] | 0.05 (≈ 0.122 µM) | 0.8 (≈ 1.96 µM) | 0.8 (≈ 1.96 µM) | 0.1 (≈ 0.245 µM) | 1.6 (≈ 3.92 µM) |
| COc1ccc(NC(=O)C(=O)c2c(-c3ccccc3)cc3c(C)cccn23)cc1 [Example 234, N-(4-Methoxy-phenyl)-2-(8-methyl-2-phenyl-indolizin-3-yl)-2-oxo-acetamide] | > 50 | > 50 | > 50 | 1.6 (≈ 4.16 µM) | > 50 |
| COc1ccc(NC(=O)C(=O)c2c(-c3cccc(C#N)c3)cc3ccccn23)cc1 [Example 236, 2-[2-(3-Cyano-phenyl)-indolizin-3-yl]-N-(4-methoxy-phenyl)-2-oxo-acetamide] | 0.1 (≈ 0.253 µM) | > 50 | > 50 | 0.05 (≈ 0.126 µM) | > 50 |
| COc1ccc(NC(=O)C(=O)c2c(-c3ccccc3)cc3cccc(C)n23)cc1 [Example 237, N-(4-Methoxy-phenyl)-2-(5-methyl-2-phenyl-indolizin-3-yl)-2-oxo-acetamide] | 1.6 (≈ 4.16 µM) | 0.8 (≈ 2.08 µM) | 3.1 (≈ 8.06 µM) | 0.4 (≈ 1.04 µM) | 1.6 (≈ 4.16 µM) |
| COc1ccc(NC(=O)C(=O)c2c(-c3ccccc3)cc3ccc(OC)cn23)cc1 [Example 239, N-(4-Methoxy-phenyl)-2-(6-methoxy-2-phenyl-indolizin-3-yl)-2-oxo-acetamide] | 0.05 (≈ 0.125 µM) | 0.8 (≈ 2 µM) | > 50 | 0.05 (≈ 0.125 µM) | 50 (≈ 125 µM) |
| CN(C)CCOc1cccc(NC(=O)C(=O)c2c(-c3ccccc3)cc3ccccn23)c1 [Example 240, N-[3-(2-Dimethylamino-ethoxy)-phenyl]-2-oxo-2-(2-phenyl-indolizin-3-yl)-acetamide] | 12.5 (≈ 29.2 µM) | > 50 | > 50 | 12.5 (≈ 29.2 µM) | 50 (≈ 117 µM) |
